Source: PubChem BioAssay (NCI)
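Test compounds were applied to cells in 96-well plates for 48 hours at 5 doses. The concentration for full growth arrest is given as TGI.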

Key:
Experiment in all cases: NCI-60 cell line screen, 48 h
U251 CNS = tested on: U251 CNS
HT29 colon = tested on: HT29 colon
M14 melanoma = tested on: M14 melanoma
HCT-15 colon = tested on: HCT-15 colon
SK-MEL-2 melanoma = tested on: SK-MEL-2 melanoma
CCRF-CEM leukemia = tested on: CCRF-CEM leukemia
EKVX NSCLC = tested on: EKVX NSCLC
MOLT-4 leukemia = tested on: MOLT-4 leukemia
MDA-MB-435 = tested on: MDA-MB-435
MDA-N = tested on: MDA-N
SF-295 CNS = tested on: SF-295 CNS
SN12C renal = tested on: SN12C renal
A498 renal = tested on: A498 renal
UACC-62 melanoma = tested on: UACC-62 melanoma
NCI-H226 lung = tested on: NCI-H226 lung
HOP-62 NSCLC = tested on: HOP-62 NSCLC
NCI-H522 lung = tested on: NCI-H522 lung
BT-549 breast = tested on: BT-549 breast
OVCAR-4 ovarian = tested on: OVCAR-4 ovarian
IGROV1 ovarian = tested on: IGROV1 ovarian
UO-31 renal = tested on: UO-31 renal
MDA-MB-231 breast = tested on: MDA-MB-231 breast
UACC-257 melanoma = tested on: UACC-257 melanoma
KM12 colon = tested on: KM12 colon
SR leukemia = tested on: SR leukemia
HCT-116 colon = tested on: HCT-116 colon
RXF 393 renal = tested on: RXF 393 renal
COLO 205 colon = tested on: COLO 205 colon
SK-OV-3 ovarian = tested on: SK-OV-3 ovarian
HOP-92 NSCLC = tested on: HOP-92 NSCLC
TK-10 renal = tested on: TK-10 renal
CAKI-1 renal = tested on: CAKI-1 renal
NCI-H23 lung = tested on: NCI-H23 lung
OVCAR-3 ovarian = tested on: OVCAR-3 ovarian
SW-620 colon = tested on: SW-620 colon
T-47D breast = tested on: T-47D breast
PC-3 prostate = tested on: PC-3 prostate
K-562 leukemia = tested on: K-562 leukemia
SF-539 CNS = tested on: SF-539 CNS
A549 NSCLC = tested on: A549 NSCLC
786-0 renal = tested on: 786-0 renal
SK-MEL-5 melanoma = tested on: SK-MEL-5 melanoma
OVCAR-8 ovarian = tested on: OVCAR-8 ovarian
MALME-3M melanoma = tested on: MALME-3M melanoma
SNB-19 CNS = tested on: SNB-19 CNS
HS 578T breast = tested on: HS 578T breast
MCF7 breast = tested on: MCF7 breast
NCI/ADR-RES ovarian = tested on: NCI/ADR-RES ovarian
ACHN renal = tested on: ACHN renal
HL-60(TB) leukemia = tested on: HL-60(TB) leukemia
DU-145 prostate = tested on: DU-145 prostate
OVCAR-5 ovarian = tested on: OVCAR-5 ovarian
LOX IMVI melanoma = tested on: LOX IMVI melanoma
SNB-75 CNS = tested on: SNB-75 CNS
RPMI-8226 leukemia = tested on: RPMI-8226 leukemia
SF-268 CNS = tested on: SF-268 CNS
NCI-H460 lung = tested on: NCI-H460 lung
SK-MEL-28 melanoma = tested on: SK-MEL-28 melanoma
HCC-2998 colon = tested on: HCC-2998 colon

Cc1nn(-c2ccccc2)c2c1C(c1cc3ccccc3nc1Cl)NC(=S)N2 (stereo not given)
TGI (U251 CNS): 83 µM
TGI (HT29 colon): > 100 µM
TGI (M14 melanoma): > 100 µM
TGI (HCT-15 colon): > 100 µM
TGI (SK-MEL-2 melanoma): 44.8 µM
TGI (CCRF-CEM leukemia): > 100 µM
TGI (EKVX NSCLC): > 100 µM
TGI (MOLT-4 leukemia): > 100 µM
TGI (MDA-MB-435): > 100 µM
TGI (MDA-N): > 100 µM
TGI (SF-295 CNS): > 100 µM
TGI (SN12C renal): > 100 µM
TGI (A498 renal): > 100 µM
TGI (UACC-62 melanoma): > 100 µM
TGI (NCI-H226 lung): > 100 µM
TGI (HOP-62 NSCLC): > 100 µM
TGI (NCI-H522 lung): 69.5 µM
TGI (BT-549 breast): > 100 µM
TGI (OVCAR-4 ovarian): > 100 µM
TGI (IGROV1 ovarian): 37.6 µM
TGI (UO-31 renal): 50.4 µM
TGI (MDA-MB-231 breast): > 100 µM
TGI (UACC-257 melanoma): > 100 µM
TGI (KM12 colon): > 100 µM
TGI (SR leukemia): > 100 µM
TGI (HCT-116 colon): > 100 µM
TGI (RXF 393 renal): 71.8 µM
TGI (COLO 205 colon): > 100 µM
TGI (SK-OV-3 ovarian): > 100 µM
TGI (HOP-92 NSCLC): 96.6 µM
TGI (TK-10 renal): > 100 µM
TGI (CAKI-1 renal): > 100 µM
TGI (NCI-H23 lung): > 100 µM
TGI (OVCAR-3 ovarian): > 100 µM
TGI (SW-620 colon): 98.4 µM
TGI (T-47D breast): > 100 µM
TGI (PC-3 prostate): > 100 µM
TGI (K-562 leukemia): > 100 µM
TGI (SF-539 CNS): 67.2 µM
TGI (A549 NSCLC): > 100 µM
TGI (786-0 renal): > 100 µM
TGI (SK-MEL-5 melanoma): > 100 µM
TGI (OVCAR-8 ovarian): 82.2 µM
TGI (MALME-3M melanoma): > 100 µM
TGI (SNB-19 CNS): > 100 µM
TGI (HS 578T breast): > 100 µM
TGI (MCF7 breast): > 100 µM
TGI (NCI/ADR-RES ovarian): > 100 µM
TGI (ACHN renal): > 100 µM
TGI (HL-60(TB) leukemia): > 100 µM
TGI (DU-145 prostate): > 100 µM
TGI (OVCAR-5 ovarian): > 100 µM
TGI (LOX IMVI melanoma): 56.6 µM
TGI (SNB-75 CNS): > 100 µM
TGI (RPMI-8226 leukemia): 48.7 µM
TGI (SF-268 CNS): > 100 µM
TGI (NCI-H460 lung): > 100 µM

CC(=O)Nc1ccc(S(=O)(=O)[N-]C2C(=O)c3ccccc3C(=O)C2[n+]2ccccc2)cc1 (stereo not given)
TGI (U251 CNS): 27.3 µM
TGI (HT29 colon): > 100 µM
TGI (M14 melanoma): 27.4 µM
TGI (HCT-15 colon): > 100 µM
TGI (SK-MEL-2 melanoma): 25.3 µM
TGI (CCRF-CEM leukemia): 40.5 µM
TGI (SK-MEL-28 melanoma): 30.1 µM
TGI (EKVX NSCLC): > 100 µM
TGI (MOLT-4 leukemia): 47.2 µM
TGI (MDA-MB-435): 14.9 µM
TGI (MDA-N): 33 µM
TGI (SF-295 CNS): 28.8 µM
TGI (SN12C renal): > 100 µM
TGI (UACC-62 melanoma): 28.9 µM
TGI (NCI-H226 lung): > 100 µM
TGI (HOP-62 NSCLC): 35.3 µM
TGI (NCI-H522 lung): 92.7 µM
TGI (BT-549 breast): 13.4 µM
TGI (OVCAR-4 ovarian): 28.9 µM
TGI (IGROV1 ovarian): 30 µM
TGI (HCC-2998 colon): 43.6 µM
TGI (UO-31 renal): 21.2 µM
TGI (MDA-MB-231 breast): > 100 µM
TGI (UACC-257 melanoma): 29.5 µM
TGI (KM12 colon): 27.9 µM
TGI (SR leukemia): 42.1 µM
TGI (HCT-116 colon): > 100 µM
TGI (RXF 393 renal): 30.4 µM
TGI (COLO 205 colon): > 100 µM
TGI (SK-OV-3 ovarian): > 100 µM
TGI (HOP-92 NSCLC): 33.6 µM
TGI (TK-10 renal): > 100 µM
TGI (CAKI-1 renal): > 100 µM
TGI (NCI-H23 lung): 21.5 µM
TGI (OVCAR-3 ovarian): 32.3 µM
TGI (SW-620 colon): 32.9 µM
TGI (T-47D breast): > 100 µM
TGI (PC-3 prostate): 46.1 µM
TGI (K-562 leukemia): > 100 µM
TGI (SF-539 CNS): 33.3 µM
TGI (A549 NSCLC): 39.7 µM
TGI (786-0 renal): > 100 µM
TGI (SK-MEL-5 melanoma): 15.3 µM
TGI (OVCAR-8 ovarian): 38.3 µM
TGI (MALME-3M melanoma): 25.1 µM
TGI (SNB-19 CNS): 27.3 µM
TGI (HS 578T breast): 62.4 µM
TGI (MCF7 breast): 31.8 µM
TGI (NCI/ADR-RES ovarian): 38.8 µM
TGI (ACHN renal): 30.7 µM
TGI (HL-60(TB) leukemia): 40.5 µM
TGI (DU-145 prostate): > 100 µM
TGI (OVCAR-5 ovarian): 32.3 µM
TGI (LOX IMVI melanoma): > 100 µM
TGI (SNB-75 CNS): 30.1 µM
TGI (RPMI-8226 leukemia): > 100 µM
TGI (SF-268 CNS): 35.5 µM
TGI (NCI-H460 lung): 86.3 µM
